Reference: ChEMBL document CHEMBL4706659, “Design, synthesis and biological evaluation of novel 2,4-diaryl pyrimidine derivatives as selective EGFR inhibitors” (Eur J Med Chem, 2021)

Experiments:
Format in all cases: functional
NCI-H1975 [1] = experiment: Antitumor activity against human NCI-H1975 cells harboring EGFR T790M/L858R mutant xenografted in nude mouse assessed as tumor growth inhibition at 15 mg/kg, po administered once daily for 7 days relative to control; settings: Mus musculus, NCI-H1975, po, 168 h, time 7 day, read-out: TGI
NCI-H1975 [2] = experiment: Induction of apoptosis in human NCI-H1975 cells harboring EGFR T790M/L858R mutant assessed as necrotic cells at 10 nM measured after 48 hrs by Annexin-V-FITC/propidium iodide staining based flow cytometry (reference value: […])
NCI-H1975 [3] = experiment: Induction of apoptosis in human NCI-H1975 cells harboring EGFR T790M/L858R mutant assessed as viable cells at 10 nM measured after 72 hrs by Annexin-V-FITC/propidium iodide staining based flow cytometry (reference value: 98.66%); settings: read-out: Activity

C=CC(=O)Nc1cc(Nc2nccc(-c3cn(C4CC4)c4ccccc34)n2)c(OC)cc1[S+]([O-])CCN(C)C (stereo not drawn)
inhibition in vivo at 15 mg/kg (NCI-H1975 [1]): 93.3% | Activity (NCI-H1975 [2]): 21.2% | viability at 0.01 µM (NCI-H1975 [3]): 27.4%
